Results reported in patent publication US8993257B2, “System and method for studying epidermis samples ex vivo” (University of Rochester, priority 2012, dated 2015).

Experiments:
[1] = system: intact human epidermis samples; details: Histamine 100 μM; evaluated at 10, 20 and 30 minutes; epidermis isolated with dispase; FIG. 5
Source text: The invention will allow measuring epidermal barrier integrity by evaluating transepithelial electric resistance (TEER), using a planar electrode (for example, Endohm-Snap; World Precision Instruments, Sarasota, Fla., USA), and a paracellular flux assay of for example, fluorescently labeled probes of different radii and sizes. Probes can be added to the upper well, and samples will be collected in the lower well over time to determine the paracellular flux. The amount of fluorescent probes that diffuse across the epidermis sample can be measured using an appropriate fluorometer or spectrophotometer.
The filter 206 of the original detachable ring 204 in the Snapwell™ (Corning, 3407) is replaced by a sandwich system 302 having two Plexiglas (or any other suitable material) inserts 304, with the epidermis/skin sample 306 lying in between them on a filter paper 308 (Nucleopore Track-etched, #110407; 13 mm diameter & pore: 0.4 μm) so that it covers the opening. The skin sample 306 is inserted with epidermis side up. Each of the inserts 304 has a hole 310 formed therein with a diameter of 0.3 cm and an area of 0.0707 cm^2. As in the conventional Snapwell™ system, the sandwich system is 302 is placed between an upper well 312 having a medium 314 and a lower well 316 having a medium 318. A volt-ohm meter 320 is connected between the two media. […]

[2] = system: barrier-disrupted human epidermis; experiment: TEER of tape stripped (barrier-disrupted) human epidermis in the system; format: cell-based; details: compared with media alone
Procedure: (§1) The Weck blade is held at a 30-45° angle from the donor skin (e.g. living subject or discarded skins from plastic surgery procedures) surface, while a gentle traction behind the blade is provided by the other hand. Using different depths (e.g. […]), based on the skin sample source (e.g. based on differences in epidermal depth in different anatomical areas as well as species-specific differences), we can effectively isolate intact, full thickness epidermal samples with minimal to no dermis (e.g. subepithelial tissue). The epidermis is removed using that Weck surgical blade, cut into smaller samples to fit the apparatus and placed in a calcium-containing buffer until it is mounted in the device.
(§2) We have also used the invention to test the effect of cytokines relevant to human disease on epidermal barrier function recovery. Human discarded skin was tape stripped to induce a barrier impairment, this barrier-disrupted epidermis was isolated using the Weck blade and placed into the system. Samples were than treated for 24 h with human recombinant IL17A, a prototypic cytokine commonly found within the skin lesions of psoriasis (FIG. 6) or the Th2 cytokines, IL4 and IL13, commonly found in atopic dermatitis (FIG. 7). After 24 h treatment with human recombinant IL17A (50 and 100 ng/ml), TEER was increased, and paracellular flux was reduced as compared with a sample treated with media alone. Those data indicated IL17A enhanced epidermal barrier recovery.

[3] = system: barrier-disrupted human epidermis; experiment: Paracellular flux across tape stripped (barrier-disrupted) human epidermis in the system; format: cell-based; details: compared with media alone
Procedure: as §1, §2

[4] = system: murine skin samples (wild type and STAT6 mice); experiment: Skin barrier recovery after in vivo tape stripping, murine skin samples mounted in the system; format: cell-based; details: Pam3CSK4 10 μM; wild type versus STAT6 mice, n=3 each; normalized to WT vehicle control; FIG. 8
Procedure: For very thin skin samples isolated from rodents or other small mammalians, curettage along the dermal surface of the biopsy can be performed with a blade to minimize the amount of dermis taken. Alternatively, skin can be incubated in ammonium thiocyanate and epidermis removed from dermis. Murine skin can be isolated from any anatomical area, defatted using a surgical blade, cut into smaller samples to mount in the apparatus.
We have also used the present invention in a murine model. Skin barrier recovery after in vivo tape stripping was evaluated in wild type mice as compared to genetically modified mice that expressed a constitutively activated form of STAT6 under the CD2 locus, that results in the enhanced expression of Th2 cytokines (IL-4 and IL-13). Skin samples were collected from the healthy, nonperturbed skin of the back or from an area of the back that underwent tape stripping. The dermis was removed by scraping with a surgical blade and skin samples were mounted in the system. We observed no differences in recovery between the two mice strains. […] All data are normalized to WT vehicle control group. In FIG. 8, ns: not significant; *P<0.05, **P<0.01, ***P<0.001. (WT, n=3; STAT6VT, n=3).

[5] = IL17A 50 and 100 ng/ml, 24 h treatment, FIG. 6
[6] = IL4 (50 ng/ml) and IL13 (50 ng/ml) given together, FIG. 7

NCCc1c[nH]cn1 [Histamine]
paracellular flux of fluorescein [1]: enhanced

IL17A: human recombinant IL17A, a prototypic cytokine commonly found within the skin lesions of psoriasis
TEER [2, 5]: increased | paracellular flux [3, 5]: reduced

IL13: human recombinant IL13, Th2 cytokine commonly found in atopic dermatitis
TEER [2, 6]: reduced | paracellular flux [3, 6]: increased

Pam3CSK4
skin barrier recovery [4]: greater recovery in wild type mice

B1: IL4: human recombinant IL4, Th2 cytokine commonly found in atopic dermatitis (protein, UniProt P05112 25-153, looked up)
Interleukin-4: HKCDITLQEIIKTLNSLTEQKTLCTELTVTDIFAASKNTTEKETFCRAATVLRQFYSHHEKDTRCLGATAQQFHRHKQLIRFLKRLDRNLWGLAGLNSCPVKEANQSTLENFLERLKTIMREKYSKCSS
TEER [2, 6]: reduced | paracellular flux [3, 6]: increased
